Assay results: patent publication US11536685B2, “High throughput assay for identifying microbial redox enzymes” (TRUSTEES OF BOSTON UNIVERSITY, priority 2020, dated 2022)
Like-named read-outs stand apart in the source and are kept apart here.

How the values were obtained:
C. ammoniagenes MAO = test: AUR fluorescence assay in Rosetta2 (DE3) cells expressing MAO; format: cell-based
[1] = tested on: Rosetta2 (DE3) cells expressing MAO; test: Cell viability of Rosetta2 (DE3) cells expressing MAO; format: cell-based, E. coli
C41 cells expressing MAO = test: Cell viability of C41 cells expressing MAO; format: cell-based, E. coli; details: C41 AUR fluorescing cells expressing MAO
NicA2 [2] = target: T1, NicA2 (Pseudomonas putida, UniProt F8G0P2); test: AUR fluorescence of cells expressing APEX2 and NicA2; format: cell-based, Pseudomonas putida S16
NicA2 [3] = target: T1, NicA2; test: Chronoamperometric NicA2 electrochemical nicotine biosensor; format: biochemical, Pseudomonas putida S16; parameters: poly-histidine; made in house; host or cells: E. coli BL21 (DE3); details: for chronoamperometric response to compound alone: added in the middle of a chronoamperometric experiment
Experimental: Sensor Preparation: Electrochemical experiments were performed with VersaSTAT MC™ (Ametek Inc.™, Pennsylvania, Pa.). Sensors were prepared with Screen-Printed Prussian Blue/Carbon Electrode (Metrohm USA™, Riverview, Fla.). […] The sensors were allowed to dry overnight at 4° C. with no light prior to use.
Chronoamperometric responses were recorded over time, with a potential −0.2 V (versus Ag/AgCl). […] Similar experiments were performed to evaluate the selectivity of the sensor to cotinine.
The electrochemical biosensor was composed of a Screen-Printed Prussian Blue/Carbon Electrode with a Ag/AgCl reference electrode (RE). […] Chronoamperometric responses were recorded over time with a potential −0.2 V versus the RE.
The selectivity of the biosensor was evaluated by measuring the chronoamperometric response in the presence of common interferents at relevant physiological concentrations in sweat (see e.g., FIG. 22C).

nicA2 [4] = target: T2, nicA2 (Pseudomonas putida, UniProt F8G0P2); test: FACS percentage of fluorescent cells on nicA2 induction; format: cell-based; details: induced with 50 μM IPTG; APEX2, AUR and nicotine present
T2 construct: expressed in transfected cells; host or cells: E. coli
T2 sequence (F8G0P2 39-482): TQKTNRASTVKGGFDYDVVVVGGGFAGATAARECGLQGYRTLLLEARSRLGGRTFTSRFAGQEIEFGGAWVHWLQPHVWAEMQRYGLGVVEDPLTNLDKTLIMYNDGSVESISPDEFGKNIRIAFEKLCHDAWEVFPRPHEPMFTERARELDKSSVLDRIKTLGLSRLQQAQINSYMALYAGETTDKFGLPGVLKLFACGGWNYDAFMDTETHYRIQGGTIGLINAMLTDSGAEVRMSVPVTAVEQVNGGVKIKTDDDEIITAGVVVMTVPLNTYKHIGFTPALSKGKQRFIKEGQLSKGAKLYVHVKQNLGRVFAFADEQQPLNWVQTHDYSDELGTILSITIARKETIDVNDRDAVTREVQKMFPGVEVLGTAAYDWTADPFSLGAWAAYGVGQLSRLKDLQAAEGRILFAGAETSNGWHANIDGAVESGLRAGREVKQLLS

candidate MRE = test: Optimized MRE assay, clone responsive to hydrocortisone; format: cell-based; details: Rosetta2 (DE3) cells, clone from mixture of seven gDNA libraries
From the text: Further analysis of the fluorescence cells identified two clones that expressed a candidate MRE responsive to lidocaine (FIG. 40A) and two clones that were responsive to cortisol (FIG. 40B). Additionally, the inventors also discovered one clone expressing a candidate MRE responsive to hydrocortisone (FIGS. 41A-41F).

SMILES | AUR fluorescence (C. ammoniagenes MAO) | cell viability [1] | cell viability as compared to Rosetta2 (DE3) cells (C41 cells expressing MAO) | also measured
NCc1ccccc1 [benzylamine] | produce fluorescent signal | do not decrease cell viability |  | 
NCCc1c[nH]c2ccccc12 [tryptamine] | produce fluorescent signal | do not decrease cell viability | decreased viability | 
c1cncc(C2=NCCC2)c1 [myosmine] |  |  |  | fluorescence of cells expressing APEX2 and NicA2 (NicA2 [2]): not; response to nicotine addition after NicA2 was inhibited by myosmine (NicA2 [3]): Minimal responses; chronoamperometric response to compound alone (NicA2 [3]): Minimal responses; chronoamperometric response to compound alone (NicA2 [3]; listed as Myosmine): Minimal response; response to nicotine addition after NicA2 was inhibited by myosmine (NicA2 [3]; listed as Myosmine): Minimal response
NCCc1ccc(O)cc1 [tyramine] | produce fluorescent signal | do not decrease cell viability | decreased viability | 
CC(C)S[C@@H]1O[C@H](CO)[C@H](O)[C@H](O)[C@H]1O [IPTG, isopropyl b-D-1-thiogalactopyranoside] |  |  |  | percentage of cells fluorescent (nicA2 [4]): 79.3%
C[C@]12CCC(=O)C=C1CC[C@@H]1[C@@H]2[C@@H](O)C[C@@]2(C)[C@H]1CC[C@]2(O)C(=O)CO [hydrocortisone] |  |  |  | fluorescence over time as compared to no hydrocortisone (candidate MRE): increased fluorescence
NCC(O)c1ccc(O)cc1 (stereo not drawn) [octopamine] | produce fluorescent signal | do not decrease cell viability | decreased viability | 
CN1C(=O)CC[C@H]1c1cccnc1 [Cotinine] |  |  |  | effect upon the response to nicotine (NicA2 [3]; 200 μM nicotine solution added to solution of the compound): minimal effect
CN1CCCC1c1cccnc1 (stereo not drawn) [nicotine] |  | substantially decreased |  | fluorescence of cells expressing APEX2 and NicA2 (NicA2 [2]): robust fluorescence; time of return to baseline (NicA2 [3]; 200 μM nicotine): 6000 s; time to maximal current (NicA2 [3]; 200 μM nicotine): 4000 s; Maximal current (NicA2 [3]; 200 μM nicotine, 2 nmol NicA2, −0.2 V versus Ag/AgCl, PBS): ~250 nA
